The values that follow come from US8552002B2 (Novartis AG, priority 2004, dated 2013).

Each structure is given as a SMILES string. Read-outs that look alike come from different tables or passages of the source.

One series deals with T1, KDR (Homo sapiens, UniProt P35968).
T1 construct: expressed in transfected cells; host or cells: CHO cells
In words: Inhibitory activity against KDR (VEGF-R2), in vitro data of Examples 170 and 207. The format is biochemical. The conditions noted are these: 10 μM, read-out: KDR inhibition at 10 μM. Summed up: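 KDR tyrosine phosphorylation detected by luminescence after overnight 4° C capture of 20 μg lysate protein with PY20:AP antibody. Lysates came from cells given compound for 2 h at 37° C, then final 20 ng/ml VEGF for 5 min; compound-free medium as control.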

The target of another series is T2, Tek (Homo sapiens, UniProt Q02763).
T2 construct: amino acids 773-1124 of the cytoplasmic kinase domain of human Tek, N-terminally fused to GST; made in house; host or cells: Sf9 insect cells (baculovirus)
T2 sequence (Q02763 773-1124): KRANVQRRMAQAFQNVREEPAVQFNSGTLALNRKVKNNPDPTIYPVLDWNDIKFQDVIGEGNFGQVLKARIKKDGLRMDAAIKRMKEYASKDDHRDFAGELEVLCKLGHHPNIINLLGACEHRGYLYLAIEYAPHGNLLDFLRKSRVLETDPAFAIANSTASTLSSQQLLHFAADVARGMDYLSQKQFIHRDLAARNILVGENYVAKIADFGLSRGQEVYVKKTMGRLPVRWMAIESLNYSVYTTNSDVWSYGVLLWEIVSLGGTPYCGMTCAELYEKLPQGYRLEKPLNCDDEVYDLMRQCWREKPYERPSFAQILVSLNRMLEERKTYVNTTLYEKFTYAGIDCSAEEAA
Put plainly: Recombinant GST-Tek (Tie-2) tyrosine kinase assay (33P into poly(Glu,Tyr)). The format is biochemical. Conditions: Examples 1 to 169. Summed up:
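Read-out is filter-bound 33P in poly(Glu,Tyr) 4:1 (10 μg/mL) after 30 min at ambient temperature with 4.0 μM ATP. Enzyme: 150 ng human GST-Tek (aa 773-1124) from insect cells, in Tris pH 7.5 with Mn2+/Mg2+ and vanadate. IC50 fitted linearly over four concentrations, usually 0.01-10 μM.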

A further series has as its target T3, FGFR3 (K650E) (Homo sapiens, UniProt P22607, K650E).
T3 construct: amino acids 411-806 of the cytoplasmic domain of human FGFR-3, N-terminally fused to GST; made in house; host or cells: Sf9 insect cells (baculovirus)
In words: Recombinant GST-FGFR-3-K650E tyrosine kinase assay (33P into poly(Glu,Tyr)). The format is biochemical. The conditions noted are these: 10 μM.

The next series has as its target c-Abl (Homo sapiens, UniProt P00519). In words: Inhibitory activity against c-Abl (Example 207). The conditions noted are these: Examples 171 to 206. The class given is biochemical.
The mark [1] stands for this setting: Examples 1 to 169, read-out: FGFR3 (K650E) inhibition at 10 μM.
The mark [2] stands for this setting: Examples 171 to 206, read-out: FGFR3 inhibition at 10 μM.

T1 sequence (P35968 20-1356): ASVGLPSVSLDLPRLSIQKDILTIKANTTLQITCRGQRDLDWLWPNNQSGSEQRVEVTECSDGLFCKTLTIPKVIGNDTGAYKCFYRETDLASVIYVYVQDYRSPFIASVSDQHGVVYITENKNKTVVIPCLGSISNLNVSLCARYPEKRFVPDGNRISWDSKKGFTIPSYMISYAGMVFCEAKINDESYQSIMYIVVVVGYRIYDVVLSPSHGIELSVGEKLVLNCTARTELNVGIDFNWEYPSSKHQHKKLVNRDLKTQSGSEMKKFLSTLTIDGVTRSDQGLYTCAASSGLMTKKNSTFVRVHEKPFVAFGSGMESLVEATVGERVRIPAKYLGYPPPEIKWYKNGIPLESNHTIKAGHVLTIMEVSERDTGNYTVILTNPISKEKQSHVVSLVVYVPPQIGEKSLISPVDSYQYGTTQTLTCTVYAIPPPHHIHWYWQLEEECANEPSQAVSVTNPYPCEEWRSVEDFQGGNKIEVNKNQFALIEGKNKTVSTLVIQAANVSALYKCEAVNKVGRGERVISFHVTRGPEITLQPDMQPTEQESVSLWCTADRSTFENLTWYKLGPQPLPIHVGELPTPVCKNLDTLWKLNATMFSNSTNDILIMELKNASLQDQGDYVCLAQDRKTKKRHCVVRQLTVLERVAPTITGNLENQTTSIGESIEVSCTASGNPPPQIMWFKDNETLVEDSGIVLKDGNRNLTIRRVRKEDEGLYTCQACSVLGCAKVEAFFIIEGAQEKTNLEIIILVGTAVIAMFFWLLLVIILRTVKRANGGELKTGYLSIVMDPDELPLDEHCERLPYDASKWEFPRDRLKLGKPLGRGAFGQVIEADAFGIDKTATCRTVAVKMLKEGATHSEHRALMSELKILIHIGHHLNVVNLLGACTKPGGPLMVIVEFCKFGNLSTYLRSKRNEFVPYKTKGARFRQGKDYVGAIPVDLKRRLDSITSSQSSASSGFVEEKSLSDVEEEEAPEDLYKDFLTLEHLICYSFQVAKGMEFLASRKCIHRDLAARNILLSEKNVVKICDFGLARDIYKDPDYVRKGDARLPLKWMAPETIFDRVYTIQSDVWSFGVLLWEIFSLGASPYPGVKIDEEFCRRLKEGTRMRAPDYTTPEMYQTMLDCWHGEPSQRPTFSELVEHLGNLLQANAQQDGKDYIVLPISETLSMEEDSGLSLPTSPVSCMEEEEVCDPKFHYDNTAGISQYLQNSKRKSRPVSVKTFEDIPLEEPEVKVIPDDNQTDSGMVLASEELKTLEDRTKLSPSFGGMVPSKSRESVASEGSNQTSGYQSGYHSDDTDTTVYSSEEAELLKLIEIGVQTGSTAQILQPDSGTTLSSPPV
T3 sequence (P22607 411-806 K650E): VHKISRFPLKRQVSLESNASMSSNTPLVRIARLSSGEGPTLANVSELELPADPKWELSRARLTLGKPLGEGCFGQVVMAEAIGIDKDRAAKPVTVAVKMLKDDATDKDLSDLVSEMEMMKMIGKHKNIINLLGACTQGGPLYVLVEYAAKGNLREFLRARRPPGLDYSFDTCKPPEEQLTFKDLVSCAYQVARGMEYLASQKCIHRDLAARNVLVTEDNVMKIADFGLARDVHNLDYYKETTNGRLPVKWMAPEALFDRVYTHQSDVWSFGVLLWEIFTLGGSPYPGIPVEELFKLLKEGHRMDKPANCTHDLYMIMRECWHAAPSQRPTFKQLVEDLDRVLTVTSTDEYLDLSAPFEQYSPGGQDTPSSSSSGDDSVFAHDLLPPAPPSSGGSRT
c-Abl, sequence (P00519 whole entry): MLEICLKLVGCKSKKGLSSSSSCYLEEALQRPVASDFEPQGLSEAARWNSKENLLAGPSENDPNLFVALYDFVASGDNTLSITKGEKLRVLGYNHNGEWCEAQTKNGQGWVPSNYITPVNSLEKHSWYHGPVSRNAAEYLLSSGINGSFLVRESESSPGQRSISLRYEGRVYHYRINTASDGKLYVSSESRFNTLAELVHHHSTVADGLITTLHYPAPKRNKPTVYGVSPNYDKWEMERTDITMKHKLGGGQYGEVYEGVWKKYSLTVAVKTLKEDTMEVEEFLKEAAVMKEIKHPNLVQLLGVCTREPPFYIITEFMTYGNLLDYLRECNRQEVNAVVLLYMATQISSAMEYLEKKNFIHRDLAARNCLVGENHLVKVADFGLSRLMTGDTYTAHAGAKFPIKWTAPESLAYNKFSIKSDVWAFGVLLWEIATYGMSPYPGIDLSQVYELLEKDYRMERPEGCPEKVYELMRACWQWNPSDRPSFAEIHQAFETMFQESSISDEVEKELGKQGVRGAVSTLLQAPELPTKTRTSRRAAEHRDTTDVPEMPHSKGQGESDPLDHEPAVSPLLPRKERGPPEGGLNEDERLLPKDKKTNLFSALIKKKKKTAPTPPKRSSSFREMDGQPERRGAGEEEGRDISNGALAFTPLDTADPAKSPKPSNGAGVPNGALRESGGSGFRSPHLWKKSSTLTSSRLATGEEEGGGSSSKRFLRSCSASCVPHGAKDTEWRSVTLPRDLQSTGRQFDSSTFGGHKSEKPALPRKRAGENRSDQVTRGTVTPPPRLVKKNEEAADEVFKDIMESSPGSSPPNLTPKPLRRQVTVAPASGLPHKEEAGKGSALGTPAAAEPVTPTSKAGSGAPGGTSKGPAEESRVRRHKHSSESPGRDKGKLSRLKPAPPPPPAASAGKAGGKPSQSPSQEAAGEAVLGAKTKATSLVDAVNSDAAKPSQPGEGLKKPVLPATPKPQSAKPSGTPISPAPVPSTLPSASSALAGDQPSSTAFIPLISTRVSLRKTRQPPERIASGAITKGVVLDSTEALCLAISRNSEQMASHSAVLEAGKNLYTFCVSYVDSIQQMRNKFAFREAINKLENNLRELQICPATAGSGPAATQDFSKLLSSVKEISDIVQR

Turning to `COc1ccc(Cl)c(NC(=O)N(C)c2cc(Nc3ccc(N4CCN(C)CC4)cc3)ncn2)c1Cl` [Example 1, 3-(2,6-Dichloro-3-methoxy-phenyl)-1-methyl-1-{6-[4-(4-methyl-piperazin-1-yl)-phenylamino]-pyrimidin-4-yl}-urea], the melting point fell in the range of 161.5 to 163 °C. In addition, the inhibition at 10 µM on KDR (Examples 1 to 169) is 67 to 100%. Also, the inhibition at 10 µM at Tek lay in the range of 12 to 100%.

For the compound `COc1cc(OC)c(Cl)c(NC(=O)N(C)c2cc(Nc3ccc(N4CCN(C)CC4)cc3)ncn2)c1Cl` [Example 2, 3-(2,6-Dichloro-3,5-dimethoxy-phenyl)-1-methyl-1-{6-[4-(4-methyl-piperazin-1-yl)-phenylamino]-pyrimidin-4-yl}-urea], the melting point is 221 °C (dec.). Also, at KDR (Examples 1 to 169), the inhibition at 10 µM was 67 to 100%. The inhibition at 10 µM at Tek fell in the range of 12 to 100%. For the same compound, the inhibition at 10 µM at FGFR3 (K650E) (setting [1]) lay in the range of 27 to 100%.

Take `CN1CCN(c2cccc(Nc3cc(NC(=O)Nc4c(Cl)cccc4Cl)ncn3)c2)CC1` [Example 5, 1-(2,6-Dichloro-phenyl)-3-{6-[3-(4-methyl-piperazin-1-yl)-phenylamino]-pyrimidin-4-yl}-urea]: the melting point fell in the range of 209 to 212 °C. The inhibition at 10 µM at KDR (Examples 1 to 169) was in the range of 67 to 100%. Moreover, at Tek, the inhibition at 10 µM was in the range of 12 to 100%. Moreover, the inhibition at 10 µM at FGFR3 (K650E) (setting [1]) fell in the range of 27 to 100%.

`Cc1cccc(Cl)c1NC(=O)Nc1cc(NC(C)C)ncn1` [Example 65, 1-(2-Chloro-6-methyl-phenyl)-3-(6-isopropylamino-pyrimidin-4-yl)-urea] returned a melting point of 233 °C. Also, the inhibition at 10 µM at KDR (Examples 1 to 169) is 67 to 100%. Also, on Tek, the inhibition at 10 µM was in the range of 12 to 100%. Also, the inhibition at 10 µM on FGFR3 (K650E) (setting [1]) was 27 to 100%.

In turn, `O=C(Nc1cc(N[C@H]2CC[C@H](OC(=O)Nc3c(Cl)cccc3Cl)CC2)ncn1)Nc1c(Cl)cccc1Cl` [Example 66, (2,6-dichloro-phenyl)-carbamic acid 4-{6-[3-(2,6-dichloro-phenyl)-ureido]-pyrimidin-4-ylamino}-cyclohexylester] displayed a melting point of 222 to 224 °C. Moreover, the inhibition at 10 µM at KDR (Examples 1 to 169) is 67 to 100%. In addition, the inhibition at 10 µM on Tek was 12 to 100%. Besides, the inhibition at 10 µM on FGFR3 (K650E) (setting [1]) was 27 to 100%.

In the case of `CC(C)Nc1cc(NC(=O)Nc2c(Cl)cc(Cl)cc2Cl)ncn1` [Example 67, 1-(6-Isopropylamino-pyrimidin-4-yl)-3-(2,4,6-trichloro-phenyl)-urea], the melting point is 218 to 220 °C. The inhibition at 10 µM on KDR (Examples 1 to 169) was in the range of 67 to 100%. For the same compound, the inhibition at 10 µM at Tek lay within 12 to 100%. Further, the inhibition at 10 µM at FGFR3 (K650E) (setting [1]) was in the range of 27 to 100%.

As for `CC(C)Nc1cc(NC(=O)Nc2c(Cl)cccc2Cl)ncn1` [Example 68, 1-(2,6-Dichloro-phenyl)-3-(6-isopropylamino-pyrimidin-4-yl)-urea], the melting point lay within 203 to 204 °C. Further, the inhibition at 10 µM on KDR (Examples 1 to 169) fell in the range of 67 to 100%. In addition, on Tek, the inhibition at 10 µM fell in the range of 12 to 100%. In addition, the inhibition at 10 µM on FGFR3 (K650E) (setting [1]) lay within 27 to 100%.

`CN1CCC(COc2ccc(Nc3cc(NC(=O)Nc4c(Cl)cc(Cl)cc4Cl)ncn3)cc2)CC1` [Example 69, 1-{6-[4-(1-Methyl-piperidin-4-ylmethoxy)-phenylamino]-pyrimidin-4-yl}-3-(2,4,6-trichloro-phenyl)-urea] showed a melting point of 189 to 191 °C. Besides, the inhibition at 10 µM on KDR (Examples 1 to 169) lay within 67 to 100%. The inhibition at 10 µM on Tek is 12 to 100%. Moreover, at FGFR3 (K650E) (setting [1]), the inhibition at 10 µM is 27 to 100%.

Regarding `Cc1cccc(Cl)c1NC(=O)Nc1cc(Nc2ccc(OCC3CCN(C)CC3)cc2)ncn1` [Example 70, 1-(2-Chloro-6-methyl-phenyl)-3-{6-[4-(1-methyl-piperidin-4-ylmethoxy)-phenylamino]-pyrimidin-4-yl}-urea], the melting point was 178 to 180 °C. In addition, the inhibition at 10 µM on KDR (Examples 1 to 169) fell in the range of 67 to 100%. The inhibition at 10 µM on Tek was 12 to 100%. Further, the inhibition at 10 µM at FGFR3 (K650E) (setting [1]) fell in the range of 27 to 100%.

In turn, `CN1CCC(COc2ccc(Nc3cc(NC(=O)Nc4c(Cl)cccc4Cl)ncn3)cc2)CC1` [Example 71, 1-(2,6-Dichloro-phenyl)-3-{6-[4-(1-methyl-piperidin-4-ylmethoxy)-phenylamino]-pyrimidin-4-yl}-urea] showed a melting point of 183 to 185 °C. In addition, on KDR (Examples 1 to 169), the inhibition at 10 µM lay in the range of 67 to 100%. The inhibition at 10 µM on Tek lay within 12 to 100%. The inhibition at 10 µM at FGFR3 (K650E) (setting [1]) was in the range of 27 to 100%.

Compound `CN1CCN(c2ccc(Nc3cc(NC(=O)Nc4cc(Cl)ccc4Cl)ncn3)cc2)CC1` [Example 72, 1-(2,5-Dichloro-Phenyl)-3-{6-[4-(4-methyl-piperazin-1-yl)-phenylamino]-pyrimidin-4-yl}-urea] showed a melting point of 223 to 225 °C. The inhibition at 10 µM on KDR (Examples 1 to 169) fell in the range of 67 to 100%. At Tek, the inhibition at 10 µM was in the range of 12 to 100%. Besides, the inhibition at 10 µM at FGFR3 (K650E) (setting [1]) fell in the range of 27 to 100%.

As to `CN1CCN(c2ccc(Nc3cc(NC(=O)Nc4c(Cl)cc(Cl)cc4Cl)ncn3)cc2)CC1` [Example 73, 1-{6-[4-(4-Methyl-piperazin-1-yl)-phenylamino]-pyrimidin-4-yl}-3-(2,4,6-trichloro-phenyl)-urea], the melting point lay within 209 to 211 °C. For the same compound, the inhibition at 10 µM at KDR (Examples 1 to 169) was 67 to 100%. Further, the inhibition at 10 µM at Tek is 12 to 100%. Besides, the inhibition at 10 µM on FGFR3 (K650E) (setting [1]) lay within 27 to 100%.

In turn, `CN1CCN(c2ccc(Nc3cc(NC(=O)Nc4cc(Cl)c(Cl)cc4Cl)ncn3)cc2)CC1` [Example 74, 1-{6-[4-(4-Methyl-piperazin-1-yl)-phenylamino]-pyrimidin-4-yl}-3-(2,4,5-trichloro-phenyl)-urea] gave a melting point of 252 to 254 °C. Further, on KDR (Examples 1 to 169), the inhibition at 10 µM was in the range of 67 to 100%. At Tek, the inhibition at 10 µM fell in the range of 12 to 100%. Also, the inhibition at 10 µM on FGFR3 (K650E) (setting [1]) fell in the range of 27 to 100%.

Take `COc1cc(NC(=O)c2ccc(CN3CCN(C)CC3)c(C(F)(F)F)c2)cc(NC(=O)N(C)c2cc(Nc3ccccc3)ncn2)c1` [Example 200, N-{3-Methoxy-5-[3-methyl-3-(6-phenylamino-pyrimidin-4-yl)-ureido]-phenyl}-4-(4-methyl-piperazin-1-ylmethyl)-3-trifluoromethyl-benzamide]: the inhibition at 10 µM on KDR (Examples 171 to 206) fell in the range of 87 to 100%; at c-Abl, 79 to 100%; at FGFR3 (K650E) (setting [2]), 56 to 98%.

Regarding `COc1cc(NC(=O)c2ccc(C)c(C(F)(F)F)c2)cc(NC(=O)N(C)c2cc(Nc3ccc(N4CCN(C)CC4)cc3)ncn2)c1` [Example 201, N-[3-Methoxy-5-(3-methyl-3-{6-[4-(4-methyl-piperazin-1-yl)-phenyl-amino]-pyrimidin-4-yl}-ureido)-phenyl]-4-methyl-3-trifluoromethyl-benzamide], the values for the inhibition at 10 µM on KDR (Examples 171 to 206), on c-Abl and at FGFR3 (K650E) (setting [2]) were 87 to 100%, 79 to 100% and 56 to 98%, respectively.

For `CC(=O)Nc1cc(N(C)C(=O)Nc2cc(NC(=O)c3ccc(CN4CCN(C)CC4)c(C(F)(F)F)c3)ccc2C)ncn1` [Example 202, N-[3-[3-(6-Acetylaminopyrimidin-4-yl)-3-methylureido]-4-methylphenyL]-4-(4-methylpiperazin-1-ylmethyl)-3-trifluoromethylbenzamide], the inhibition at 10 µM on KDR (Examples 171 to 206) was in the range of 87 to 100%; against c-Abl it was 79 to 100%; at FGFR3 (K650E) (setting [2]), 56 to 98%.

Consider `COC(=O)Nc1cc(N(C)C(=O)Nc2cc(NC(=O)c3ccc(CN4CCN(C)CC4)c(C(F)(F)F)c3)ccc2C)ncn1` [Example 203, [6-(1-Methyl-3-{2-methyl-5-[4-(4-methyl-piperazin-1-ylmethyl)-3-trifluoromethyl-benzoylamino]-phenyl}-ureido)-pyrimidin-4-yl]-carbamic acid methyl ester], for which the inhibition at 10 µM at KDR (Examples 171 to 206) is 87 to 100%; against c-Abl it was 79 to 100%; at FGFR3 (K650E) (setting [2]), 56 to 98%.

Take `COC(=O)Nc1cc(N(C)C(=O)Nc2cc(C(=O)Nc3ccc(CN4CCN(C)CC4)c(C(F)(F)F)c3)ccc2C)ncn1` [Example 204, [6-(1-Methyl-3-{2-methyl-5-[4-(4-methyl-piperazin-1-ylmethyl)-3-trifluoromethyl-phenylcarbamoyl]-phenyl}-ureido)-pyrimidin-4-yl]-carbamic acid methyl ester]: the inhibition at 10 µM at KDR (Examples 171 to 206) lay within 87 to 100%; against c-Abl, 79 to 100%; at FGFR3 (K650E) (setting [2]), 56 to 98%.

`CC(=O)Nc1cc(N(C)C(=O)Nc2cc(C(=O)Nc3ccc(CN4CCN(C)CC4)c(C(F)(F)F)c3)ccc2C)ncn1` [Example 205, 3-[3-(6-Acetylamino-pyrimidin-4-yl)-3-methyl-ureido]-4-methyl-N-[4-(4-methyl-piperazin-1-ylmethyl)-3-trifluoromethyl-phenyl]-benzamide]: the inhibition at 10 µM at KDR (Examples 171 to 206) lay in the range of 87 to 100%; on c-Abl, 79 to 100%; at FGFR3 (K650E) (setting [2]), 56 to 98%.

Regarding `Cc1ccc(C(=O)Nc2ccc(CN3CCN(C)CC3)c(C(F)(F)F)c2)cc1NC(=O)N(C)c1cc(N)ncn1` [Example 206, 3-[3-(6-Amino-pyrimidin-4-yl)-3-methyl-ureido]-4-methyl-N-[4-(4-methyl-piperazin-1-ylmethyl)-3-trifluoromethyl-phenyl]-benzamide], the results for the inhibition at 10 µM at KDR (Examples 171 to 206), on c-Abl and at FGFR3 (K650E) (setting [2]) were 87 to 100%, 79 to 100% and 56 to 98%, respectively.

The term inhibition denotes how much of the control response was suppressed. By melting point is commonly meant the temperature, or range, at which the solid turns liquid.
